Data from patent US12029706B2, “Methods for treating mucopolysaccharidosis” (UNIVERSITY OF MIAMI, priority 2015, dated 2024).
“Also recorded” adds a separate entry of the source.

What was measured:
[1] = test system: α-L-iduronidase (IDUA) mRNA; experiment: IDUA mRNA expression in MPS I patient cells (normalized to GAPDH); type: cell-based, human; conditions: 48 hours
Procedure: A cell culture experiment was performed in MPS-I patient-derived fibroblast cells. Cells were cultured overnight in a 384-well plate, at a concentration of 20,000 cells per well in advanced DMEM media (Life Technologies) supplemented with 15% FBS (Life technologies), 1× Glutamax (Life Technologies) and beta-mercaptoethanol (1:125000 dilution). The next day, cells were treated with the indicated compound with final concentrations including, but not limited to: 100 μ[…] and 0.12 μM depending on experiment. Treated cells were then incubated for 48 hours at 37° C., 5% CO2, 95% humidity. Cells were then washed with HBSS buffer, and 25 μM of the fluorogenic substrate 4-Methylumbelliferyl α-L-iduronide (free acid) (Santa Cruz Biotechnology) were added in the presence of 0.2M CHNaO2, 0.1% BSA, and 0.1% Triton X. After the addition of the 4-Methylumbelliferyl α-L-iduronide substrate, cells were incubated at 37° C. for 3 to 4 hours, placed at room temperature for 30 minutes to stabilize and alpha-L-iduronidase (IDUA) enzyme activity was measured using the EnVision Multilabel Plate Reader (Perkin Elmer, Inc.). Compounds were purchased from Tocris, Cayman Chemicals or Sigma-Aldrich. Tests were subsequently conducted to determine whether the increase in activity could in-part be attributed to increases in gene expression. […] Resveratrol and Piceatannol were added to patient cells for 48 hours, in the same conditions mentioned above.

[2] = test system: alpha-L-iduronidase; experiment: alpha-L-iduronidase activity in plasma of treated mice; type: in vivo; conditions: for alpha-L-iduronidase activity in plasma: 25 mg/kg or 50 mg/kg daily, 1 month; for α-iduronidase activity in plasma at 50 mg/kg/day: one month
[3] = test system: alpha-L-iduronidase (IDUA); experiment: IDUA enzyme activity in MPS-I patient-derived fibroblast cells (4-Methylumbelliferyl α-L-iduronide substrate); type: cell-based, human; conditions: compound 48 hours, vs buffer only control, FIG. 1
Procedure: A cell culture experiment was performed in MPS-I patient-derived fibroblast cells. Cells were cultured overnight in a 384-well plate, at a concentration of 20,000 cells per well in advanced DMEM media (Life Technologies) supplemented with 15% FBS (Life technologies), 1× Glutamax (Life Technologies) and beta-mercaptoethanol (1:125000 dilution). The next day, cells were treated with the indicated compound with final concentrations including, but not limited to: 100 μM, 30 μM, 10 μM, 3.3 μM, 1.1 μM, 0.37 μM and 0.12 μM depending on experiment. Treated cells were then incubated for 48 hours at 37° C., 5% CO2, 95% humidity. Cells were then washed with HBSS buffer, and 25 μM of the fluorogenic substrate 4-Methylumbelliferyl α-L-iduronide (free acid) (Santa Cruz Biotechnology) were added in the presence of 0.2M CHNaO2, 0.1% BSA, and 0.1% Triton X. After the addition of the 4-Methylumbelliferyl α-L-iduronide substrate, cells were incubated at 37° C. for 3 to 4 hours, placed at room temperature for 30 minutes to stabilize and alpha-L-iduronidase (IDUA) enzyme activity was measured using the EnVision Multilabel Plate Reader (Perkin Elmer, Inc.). Compounds were purchased from Tocris, Cayman Chemicals or Sigma-Aldrich.

Structure (SMILES)	IDUA mRNA level ([1]; FIG. 2, listed as Piceatannol)	IDUA mRNA level ([1]; FIG. 2, listed as piceatannol)	alpha-L-iduronidase activity in plasma ([2]; FIG. 3)	alpha-L-iduronidase activity in plasma ([2]; FIG. 3, listed as piceatannol)	α-iduronidase activity in plasma at 50 mg/kg/day ([2]; FIG. 3)	IDUA enzyme activity [3]	IDUA mRNA level ([1]; FIG. 2, listed as resveratrol)	alpha-L-iduronidase activity in plasma ([2]; FIG. 3, listed as resveratrol)
Oc1cc(O)cc(/C=C/c2ccc(O)c(O)c2)c1 [CTI-101, piceatannol]	increase in IDUA mRNA expression	increased the mRNA level	Increases in alpha-L-iduronidase activity	elevation of α-iduronidase activity	substantial boosts in enzyme activity			
Oc1ccc(/C=C/c2cc(O)cc(O)c2)cc1 [CTI-102, 3,5,4′-trihydroxystilbene]			Increases in alpha-L-iduronidase activity		substantial boosts in enzyme activity	increase in IDUA activity	increased the mRNA level; also recorded: increase in IDUA mRNA expression	elevation of α-iduronidase activity
